Calls of active or inactive are those of the source. The rule behind the calls is not given here.
target: Serine/threonine-protein kinase PLK1 (Homo sapiens) (UniProt P53350); experiment: Plk1 polo box domain binding inhibitors, dose response, biochemical, fluorescence polarization (AID 877); settings: Plk1 PBD phosphopeptide binding
Sequence (P53350 whole entry, looked up, the tested form may be a part): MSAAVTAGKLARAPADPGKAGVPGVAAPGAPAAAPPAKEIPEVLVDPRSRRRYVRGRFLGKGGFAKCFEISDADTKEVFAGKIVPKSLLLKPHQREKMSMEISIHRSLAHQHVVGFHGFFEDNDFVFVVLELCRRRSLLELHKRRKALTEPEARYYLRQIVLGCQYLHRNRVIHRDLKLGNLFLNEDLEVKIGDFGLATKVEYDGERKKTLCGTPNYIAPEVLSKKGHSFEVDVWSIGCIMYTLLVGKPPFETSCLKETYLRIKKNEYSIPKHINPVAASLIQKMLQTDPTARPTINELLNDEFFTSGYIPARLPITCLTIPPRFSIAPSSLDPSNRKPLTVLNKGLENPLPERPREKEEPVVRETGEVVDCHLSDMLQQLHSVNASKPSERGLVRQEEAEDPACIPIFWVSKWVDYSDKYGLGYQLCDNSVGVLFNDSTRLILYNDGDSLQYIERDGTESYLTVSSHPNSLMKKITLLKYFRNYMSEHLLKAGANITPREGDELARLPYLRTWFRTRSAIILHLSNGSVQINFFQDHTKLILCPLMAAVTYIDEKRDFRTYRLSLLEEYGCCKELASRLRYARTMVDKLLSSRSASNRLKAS

IC50, inactive:
CCC(Sc1nc2n[nH]c(C)c2c(=N)n1-c1cccc(Cl)c1)C(=O)NCCOC (stereo not drawn) > 50 µM, O=C(O)COc1ccc(Br)cc1/C=N/O > 50 µM, O=C1C(C2=C(O)c3ccccc3C2=O)=Nc2ccccc21 > 50 µM

Source: PubChem BioAssay AID877 (University of Pittsburgh Molecular Library Screening Center, 2007)
